Measured values reported in ChEMBL document CHEMBL4507318, “Data for DCP probe BAY-985” (2021).

Experiments:
[1] = system: Tyrosine-protein kinase ABL1 (Homo sapiens), P00519 [F317I]
[2] = target: Serine/threonine-protein kinase MARK1 (Homo sapiens) (UniProt Q9P0L2)
[3] = system: Phosphatidylinositol 4,5-bisphosphate 3-kinase catalytic subunit alpha isoform (Homo sapiens), P42336 [E545K]
[4] = system: Phosphatidylinositol 4,5-bisphosphate 3-kinase catalytic subunit alpha isoform (Homo sapiens), P42336 [M1043I]
[5] = target: Tyrosine-protein kinase ABL1 (Homo sapiens) (UniProt P00519)
[6] = system: Epidermal growth factor receptor (Homo sapiens), P00533 [UNDEFINED MUTATION]
[7] = target: Receptor-type tyrosine-protein kinase FLT3 (Homo sapiens) (UniProt P36888)
[8] = target: NT-3 growth factor receptor (Homo sapiens) (UniProt Q16288)
[9] = target: Calcium-dependent protein kinase 1 (Plasmodium falciparum) (UniProt P62344)
[10] = target: Receptor-interacting serine/threonine-protein kinase 4 (Homo sapiens) (UniProt P57078)
Rattus norvegicus = species on record: Rattus norvegicus; conditions: Compound concentration 10.0 uM
[11] = target: Mitogen-activated protein kinase kinase kinase kinase 5 (Homo sapiens) (UniProt Q9Y4K4)
[12] = target: Membrane-associated tyrosine- and threonine-specific cdc2-inhibitory kinase (Homo sapiens) (UniProt Q99640)
[13] = target: Sigma intracellular receptor 2 (Homo sapiens, UniProt Q5BJF2); assay: GPCRScan assay: inhibition of Sigma 2; set-up: radioligand conc. used [nm] 5.0, parental cells HEKT
[14] = target: Serine/threonine-protein kinase 4 (Homo sapiens) (UniProt Q13043)
[15] = target: Serine/threonine-protein kinase SIK3 (Homo sapiens) (UniProt Q9Y2K2)
[16] = target: Tyrosine-protein kinase Blk (Homo sapiens) (UniProt P51451)
[17] = target: Interferon-induced, double-stranded RNA-activated protein kinase (Homo sapiens) (UniProt P19525)
[18] = target: Serine/threonine-protein kinase ULK3 (Homo sapiens) (UniProt Q6PHR2)
[19] = target: Mitogen-activated protein kinase kinase kinase kinase 3 (Homo sapiens) (UniProt Q8IVH8)
[20] = target: Ribosomal protein S6 kinase alpha-4 (Homo sapiens) (UniProt O75676)
[21] = target: Insulin receptor (Homo sapiens) (UniProt P06213)
[22] = target: 1-phosphatidylinositol 3-phosphate 5-kinase (Homo sapiens) (UniProt Q9Y2I7)
[23] = system: Hepatocyte growth factor receptor (Homo sapiens), P08581 [M1250T]
[24] = target: Serine/threonine-protein kinase STK11 (Homo sapiens) (UniProt Q15831)
[25] = target: Ephrin type-A receptor 4 (Homo sapiens) (UniProt P54764)
[26] = target: Bone morphogenetic protein receptor type-1A (Homo sapiens) (UniProt P36894)
[27] = target: Calcium/calmodulin-dependent protein kinase type 1B (Homo sapiens) (UniProt Q6P2M8)
[28] = target: Cyclin-dependent kinase 5 (Homo sapiens) (UniProt Q00535)
[29] = target: Serine/threonine-protein kinase D3 (Homo sapiens) (UniProt O94806)
[30] = target: Cyclin-dependent kinase 11B (Homo sapiens) (UniProt P21127)
[31] = system: Mast/stem cell growth factor receptor Kit (Homo sapiens), P10721 [V559D,T670I]
[32] = target: Epidermal growth factor receptor (Homo sapiens) (UniProt P00533)
[33] = target: Mitogen-activated protein kinase 12 (Homo sapiens) (UniProt P53778)
[34] = target: Vascular endothelial growth factor receptor 2 (Homo sapiens) (UniProt P35968)
[35] = target: Phosphatidylinositol 4-phosphate 3-kinase C2 domain-containing subunit beta (Homo sapiens) (UniProt O00750)
[36] = target: Mitogen-activated protein kinase kinase kinase 6 (Homo sapiens) (UniProt O95382)
[37] = target: Tyrosine-protein kinase Fes/Fps (Homo sapiens) (UniProt P07332)
[38] = target: Ribosomal protein S6 kinase alpha-5 (Homo sapiens) (UniProt O75582)
[39] = target: 5-hydroxytryptamine receptor 1E (Homo sapiens) (UniProt P28566); conditions: Compound concentration 10.0 uM
[40] = target: Tyrosine-protein kinase receptor Tie-1 (Homo sapiens) (UniProt P35590)
[41] = target: Homeodomain-interacting protein kinase 3 (Homo sapiens) (UniProt Q9H422)
[42] = system: Phosphatidylinositol 4,5-bisphosphate 3-kinase catalytic subunit alpha isoform (Homo sapiens), P42336 [E542K]
[43] = target: Serine/threonine-protein kinase PAK 5 (Homo sapiens) (UniProt Q9P286)
[44] = system: Epidermal growth factor receptor (Homo sapiens), P00533 [L858R]
[45] = Compound concentration 1000.0 nM
[46] = Compound concentration 100.0 nM

Chain of Sigma intracellular receptor 2 (Q5BJF2 whole entry): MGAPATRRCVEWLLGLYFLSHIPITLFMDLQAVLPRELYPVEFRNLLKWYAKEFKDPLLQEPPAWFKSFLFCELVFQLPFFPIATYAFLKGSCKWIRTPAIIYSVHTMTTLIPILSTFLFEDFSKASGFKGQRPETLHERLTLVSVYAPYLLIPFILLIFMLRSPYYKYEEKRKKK
Chain of Receptor-interacting serine/threonine-protein kinase 4 (Homo sapiens) (P57078 whole entry): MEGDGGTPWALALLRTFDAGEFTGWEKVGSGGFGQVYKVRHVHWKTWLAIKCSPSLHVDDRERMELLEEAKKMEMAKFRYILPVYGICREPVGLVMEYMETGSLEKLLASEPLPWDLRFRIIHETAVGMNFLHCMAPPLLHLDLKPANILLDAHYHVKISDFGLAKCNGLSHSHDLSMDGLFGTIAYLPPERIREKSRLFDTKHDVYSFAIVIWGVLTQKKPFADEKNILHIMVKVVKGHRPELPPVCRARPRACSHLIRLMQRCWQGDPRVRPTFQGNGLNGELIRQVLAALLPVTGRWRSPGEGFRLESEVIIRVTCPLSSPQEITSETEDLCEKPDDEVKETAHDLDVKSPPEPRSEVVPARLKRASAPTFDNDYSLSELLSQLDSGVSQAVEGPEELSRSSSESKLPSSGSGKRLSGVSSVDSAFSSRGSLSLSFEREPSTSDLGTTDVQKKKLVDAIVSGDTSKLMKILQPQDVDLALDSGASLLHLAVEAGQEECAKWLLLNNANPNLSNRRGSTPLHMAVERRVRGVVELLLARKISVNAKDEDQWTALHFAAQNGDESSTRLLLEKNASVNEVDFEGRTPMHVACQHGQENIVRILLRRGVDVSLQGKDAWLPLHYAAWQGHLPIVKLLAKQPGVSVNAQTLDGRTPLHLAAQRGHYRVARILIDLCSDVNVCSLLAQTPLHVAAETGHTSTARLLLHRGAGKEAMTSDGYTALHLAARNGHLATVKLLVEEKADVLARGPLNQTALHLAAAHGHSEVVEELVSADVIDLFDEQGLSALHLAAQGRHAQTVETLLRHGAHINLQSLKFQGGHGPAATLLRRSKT
Chain of Ephrin type-A receptor 4 (Homo sapiens) (P54764 whole entry): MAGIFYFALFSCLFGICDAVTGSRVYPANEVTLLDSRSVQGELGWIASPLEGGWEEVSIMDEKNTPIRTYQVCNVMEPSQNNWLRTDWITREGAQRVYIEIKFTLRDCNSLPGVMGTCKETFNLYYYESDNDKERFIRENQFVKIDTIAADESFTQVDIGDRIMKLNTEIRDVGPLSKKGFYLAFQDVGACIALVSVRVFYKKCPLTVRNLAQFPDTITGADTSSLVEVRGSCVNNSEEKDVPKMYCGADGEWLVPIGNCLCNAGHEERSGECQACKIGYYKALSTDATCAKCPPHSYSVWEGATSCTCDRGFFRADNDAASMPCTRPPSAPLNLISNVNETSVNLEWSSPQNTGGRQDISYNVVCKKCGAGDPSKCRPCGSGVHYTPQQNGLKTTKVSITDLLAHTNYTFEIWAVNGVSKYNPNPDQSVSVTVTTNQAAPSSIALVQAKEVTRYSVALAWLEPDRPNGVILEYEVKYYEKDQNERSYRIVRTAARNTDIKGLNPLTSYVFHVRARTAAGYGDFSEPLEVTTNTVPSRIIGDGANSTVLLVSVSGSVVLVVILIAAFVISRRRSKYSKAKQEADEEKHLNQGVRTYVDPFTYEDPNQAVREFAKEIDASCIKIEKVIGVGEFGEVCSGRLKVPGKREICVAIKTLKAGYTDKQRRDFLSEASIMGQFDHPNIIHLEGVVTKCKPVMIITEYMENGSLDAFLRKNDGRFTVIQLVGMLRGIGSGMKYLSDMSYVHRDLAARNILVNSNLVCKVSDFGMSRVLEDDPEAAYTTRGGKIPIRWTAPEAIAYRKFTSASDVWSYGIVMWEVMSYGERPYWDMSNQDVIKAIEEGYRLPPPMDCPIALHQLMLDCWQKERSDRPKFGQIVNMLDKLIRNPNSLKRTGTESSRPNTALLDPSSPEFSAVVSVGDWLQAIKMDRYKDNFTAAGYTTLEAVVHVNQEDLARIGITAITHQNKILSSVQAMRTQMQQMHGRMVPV
Chain of Homeodomain-interacting protein kinase 3 (Homo sapiens) (Q9H422 whole entry, looked up, canonical isoform): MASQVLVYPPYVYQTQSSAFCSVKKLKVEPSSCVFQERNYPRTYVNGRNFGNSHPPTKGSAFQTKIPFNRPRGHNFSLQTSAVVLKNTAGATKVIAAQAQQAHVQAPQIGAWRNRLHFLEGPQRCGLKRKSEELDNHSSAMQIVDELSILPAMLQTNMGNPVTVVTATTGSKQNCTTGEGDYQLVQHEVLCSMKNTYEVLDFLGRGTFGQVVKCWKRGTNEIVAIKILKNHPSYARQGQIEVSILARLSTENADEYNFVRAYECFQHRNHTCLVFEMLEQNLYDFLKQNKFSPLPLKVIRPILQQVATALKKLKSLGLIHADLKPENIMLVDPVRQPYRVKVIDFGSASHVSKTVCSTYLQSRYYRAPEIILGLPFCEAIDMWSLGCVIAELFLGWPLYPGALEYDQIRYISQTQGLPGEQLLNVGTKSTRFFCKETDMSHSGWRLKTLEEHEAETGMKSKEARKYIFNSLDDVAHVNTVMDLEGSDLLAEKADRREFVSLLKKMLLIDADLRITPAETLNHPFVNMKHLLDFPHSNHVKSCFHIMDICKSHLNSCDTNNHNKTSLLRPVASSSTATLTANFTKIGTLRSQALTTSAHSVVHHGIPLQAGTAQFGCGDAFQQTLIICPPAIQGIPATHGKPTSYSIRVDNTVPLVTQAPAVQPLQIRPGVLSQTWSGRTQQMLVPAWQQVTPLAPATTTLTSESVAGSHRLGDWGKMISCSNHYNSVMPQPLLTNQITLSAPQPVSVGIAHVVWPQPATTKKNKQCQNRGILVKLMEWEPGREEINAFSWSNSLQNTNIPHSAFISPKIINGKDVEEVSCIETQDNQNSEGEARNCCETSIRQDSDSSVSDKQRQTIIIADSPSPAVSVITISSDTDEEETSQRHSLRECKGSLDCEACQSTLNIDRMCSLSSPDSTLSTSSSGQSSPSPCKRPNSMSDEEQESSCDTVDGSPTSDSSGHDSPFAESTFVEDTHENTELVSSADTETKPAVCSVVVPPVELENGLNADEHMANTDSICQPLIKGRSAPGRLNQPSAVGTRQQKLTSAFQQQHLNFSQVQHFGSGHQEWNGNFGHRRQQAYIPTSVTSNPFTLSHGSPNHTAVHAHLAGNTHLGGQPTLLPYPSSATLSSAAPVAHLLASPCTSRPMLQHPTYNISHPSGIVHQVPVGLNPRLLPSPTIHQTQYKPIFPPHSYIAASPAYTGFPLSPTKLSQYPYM
Chain of Insulin receptor (Homo sapiens) (P06213 28-758 limits assumed): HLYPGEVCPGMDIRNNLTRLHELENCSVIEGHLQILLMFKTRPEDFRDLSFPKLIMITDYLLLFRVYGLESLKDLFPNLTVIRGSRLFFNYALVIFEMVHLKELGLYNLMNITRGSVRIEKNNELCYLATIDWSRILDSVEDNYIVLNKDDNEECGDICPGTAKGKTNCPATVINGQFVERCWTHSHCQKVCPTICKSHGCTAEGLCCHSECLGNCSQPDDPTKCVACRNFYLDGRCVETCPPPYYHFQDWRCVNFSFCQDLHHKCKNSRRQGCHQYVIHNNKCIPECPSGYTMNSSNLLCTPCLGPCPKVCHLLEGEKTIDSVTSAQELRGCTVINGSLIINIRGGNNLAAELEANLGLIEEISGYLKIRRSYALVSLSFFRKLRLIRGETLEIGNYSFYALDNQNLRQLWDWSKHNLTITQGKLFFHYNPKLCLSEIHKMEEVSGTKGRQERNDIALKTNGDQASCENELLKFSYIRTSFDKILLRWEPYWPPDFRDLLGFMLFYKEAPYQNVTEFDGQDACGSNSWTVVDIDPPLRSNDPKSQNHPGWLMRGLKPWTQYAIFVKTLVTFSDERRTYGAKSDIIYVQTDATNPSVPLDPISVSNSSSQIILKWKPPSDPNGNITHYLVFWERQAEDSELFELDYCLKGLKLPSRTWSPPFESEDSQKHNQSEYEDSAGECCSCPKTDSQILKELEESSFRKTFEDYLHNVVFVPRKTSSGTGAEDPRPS
Chain of Insulin receptor (Homo sapiens) (P06213 763-1382 limits assumed): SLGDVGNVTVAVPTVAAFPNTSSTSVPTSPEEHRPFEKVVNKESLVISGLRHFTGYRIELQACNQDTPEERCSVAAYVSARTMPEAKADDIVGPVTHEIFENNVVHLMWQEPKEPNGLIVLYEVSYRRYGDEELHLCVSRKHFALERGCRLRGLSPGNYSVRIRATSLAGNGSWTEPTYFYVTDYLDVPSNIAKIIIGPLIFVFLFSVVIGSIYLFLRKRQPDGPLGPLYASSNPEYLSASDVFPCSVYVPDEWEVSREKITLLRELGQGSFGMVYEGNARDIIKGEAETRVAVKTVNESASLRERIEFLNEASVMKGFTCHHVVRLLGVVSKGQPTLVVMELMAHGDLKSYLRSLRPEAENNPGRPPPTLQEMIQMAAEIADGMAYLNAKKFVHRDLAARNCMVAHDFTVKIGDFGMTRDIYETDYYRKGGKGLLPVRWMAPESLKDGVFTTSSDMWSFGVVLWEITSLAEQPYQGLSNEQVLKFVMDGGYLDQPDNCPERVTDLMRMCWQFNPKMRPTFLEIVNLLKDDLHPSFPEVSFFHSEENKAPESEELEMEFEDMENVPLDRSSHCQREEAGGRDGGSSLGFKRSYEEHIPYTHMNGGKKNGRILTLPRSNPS
Chain of Serine/threonine-protein kinase 4 (Homo sapiens) (Q13043 whole entry): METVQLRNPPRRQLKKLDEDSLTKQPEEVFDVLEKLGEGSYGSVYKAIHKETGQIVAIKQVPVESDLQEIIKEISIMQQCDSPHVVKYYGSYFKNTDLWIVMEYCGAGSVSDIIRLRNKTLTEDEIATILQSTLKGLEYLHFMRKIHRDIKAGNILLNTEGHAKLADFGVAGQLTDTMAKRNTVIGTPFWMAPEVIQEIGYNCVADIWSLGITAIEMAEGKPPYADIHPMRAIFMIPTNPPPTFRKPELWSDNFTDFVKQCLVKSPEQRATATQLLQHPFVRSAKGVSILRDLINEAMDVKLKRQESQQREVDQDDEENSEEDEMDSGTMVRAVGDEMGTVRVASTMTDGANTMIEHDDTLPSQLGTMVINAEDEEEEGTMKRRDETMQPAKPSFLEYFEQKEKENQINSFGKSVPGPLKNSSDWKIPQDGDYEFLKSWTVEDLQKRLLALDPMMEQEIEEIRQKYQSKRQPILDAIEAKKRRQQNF

For CN(C)c1ncnc(-c2ccc3nc(Nc4cc(CN5CCN(C(=O)CC(F)(F)F)CC5)ccn4)[nH]c3c2)c1Cl [BAY-440], which residual activity [1, 45] is on record?
The residual activity was 71%.

What about the residual activity [2, 45] of the same molecule?
Its residual activity is 100%.

And the residual activity [3, 45]?
The residual activity was 76%.

And the residual activity [4, 45]?
Its residual activity is 56%.

What about the residual activity [5, 45] of the same molecule?
The residual activity was 51%.

What about the residual activity [6, 45] of the same molecule?
The residual activity was 88%.

What about the residual activity [7, 45] of the same molecule?
The residual activity was 71%.

And the residual activity [8, 45]?
The residual activity was 61%.

And the residual activity [9, 45]?
Its residual activity is 100%.

And the residual activity [10, 45]?
Its residual activity is 100%.

And the inhibition (Rattus norvegicus)?
Its inhibition is 13.9%.

And the residual activity [11, 45]?
The residual activity was 100%.

And the residual activity [12, 45]?
Its residual activity is 75%.

And the Ki ([13]; read-out: Ki)?
The Ki was 2190 nM.

What about the residual activity [14, 45] of the same molecule?
Its residual activity is 95%.

What about the residual activity [15, 45] of the same molecule?
Its residual activity is 83%.

What about the residual activity [16, 45] of the same molecule?
The residual activity was 82%.

And the residual activity [17, 45]?
The residual activity was 100%.

What about the residual activity [18, 45] of the same molecule?
The residual activity was 61%.

And the residual activity [19, 45]?
Its residual activity is 74%.

And the residual activity [20, 45]?
The residual activity was 80%.

And the residual activity [21, 45]?
The residual activity was 100%.

What about the residual activity [22, 45] of the same molecule?
Its residual activity is 81%.

What about the residual activity [23, 45] of the same molecule?
Its residual activity is 70%.

What about the residual activity [24, 45] of the same molecule?
Its residual activity is 99%.

And the residual activity [25, 45]?
Its residual activity is 92%.

And the residual activity [26, 45]?
Its residual activity is 95%.

And the residual activity [27, 45]?
The residual activity was 72%.

What about the residual activity [28, 45] of the same molecule?
The residual activity was 100%.

What about the residual activity [29, 45] of the same molecule?
The residual activity was 88%.

What about the residual activity [30, 45] of the same molecule?
Its residual activity is 100%.

What about the residual activity [31, 45] of the same molecule?
Its residual activity is 100%.

And the residual activity [32, 45]?
The residual activity was 100%.

And the residual activity [33, 45]?
Its residual activity is 68%.

And the residual activity [34, 45]?
The residual activity was 74%.

And the residual activity [35, 45]?
Its residual activity is 100%.

And the residual activity [36, 45]?
The residual activity was 87%.

What about the residual activity [37, 45] of the same molecule?
The residual activity was 100%.

What about the residual activity [38, 45] of the same molecule?
The residual activity was 100%.

What about the inhibition [39] of the same molecule?
The inhibition was 29.3%.

What about the residual activity [40, 45] of the same molecule?
The residual activity was 66%.

And the residual activity [41, 45]?
The residual activity was 100%.

And the residual activity [42, 45]?
Its residual activity is 29%.

What about the residual activity [43, 45] of the same molecule?
The residual activity was 85%.

And the residual activity [44, 45]?
Its residual activity is 100%.

How did the residual activity [1, 46] turn out when C[C@H](c1ccnc(Nc2nc3ccc(-c4cc(N(C)C)ncn4)cc3[nH]2)c1)N1CCN(C(=O)CC(F)(F)F)CC1 [BAY-985] was run?
The residual activity was 100%.

What about the residual activity [2, 46] of the same molecule?
The residual activity was 100%.

And the residual activity [3, 46]?
Its residual activity is 100%.

What about the residual activity [4, 46] of the same molecule?
Its residual activity is 84%.

What about the residual activity [5, 46] of the same molecule?
The residual activity was 85%.

And the residual activity [6, 46]?
Its residual activity is 96%.

And the residual activity [7, 46]?
The residual activity was 95%.

What about the residual activity [8, 46] of the same molecule?
Its residual activity is 100%.

And the residual activity [9, 46]?
Its residual activity is 100%.

And the residual activity [10, 46]?
The residual activity was 100%.

What about the inhibition (Rattus norvegicus) of the same molecule?
Its inhibition is -2.73%.

And the residual activity [11, 46]?
Its residual activity is 96%.

And the residual activity [12, 46]?
The residual activity was 83%.

What about the Ki ([13]; read-out: Ki) of the same molecule?
Its Ki is 1160 nM.

And the Ki ([13]; read-out: pKi (converted))?
The Ki was 1120 nM.

What about the residual activity [14, 46] of the same molecule?
The residual activity was 100%.

And the residual activity [15, 46]?
The residual activity was 100%.

What about the residual activity [16, 46] of the same molecule?
The residual activity was 79%.

What about the residual activity [17, 46] of the same molecule?
Its residual activity is 100%.

And the residual activity [18, 46]?
Its residual activity is 90%.

And the residual activity [19, 46]?
Its residual activity is 100%.

And the residual activity [20, 46]?
The residual activity was 100%.

What about the residual activity [21, 46] of the same molecule?
Its residual activity is 100%.

What about the residual activity [22, 46] of the same molecule?
The residual activity was 100%.

What about the residual activity [23, 46] of the same molecule?
Its residual activity is 93%.

What about the residual activity [24, 46] of the same molecule?
The residual activity was 100%.

What about the residual activity [25, 46] of the same molecule?
Its residual activity is 98%.

And the residual activity [26, 46]?
The residual activity was 97%.

What about the residual activity [27, 46] of the same molecule?
The residual activity was 100%.

What about the residual activity [28, 46] of the same molecule?
The residual activity was 86%.

And the residual activity [29, 46]?
Its residual activity is 100%.

What about the residual activity [30, 46] of the same molecule?
Its residual activity is 100%.

And the residual activity [31, 46]?
The residual activity was 99%.

What about the residual activity [32, 46] of the same molecule?
The residual activity was 97%.

What about the residual activity [33, 46] of the same molecule?
Its residual activity is 95%.

And the residual activity [34, 46]?
The residual activity was 100%.

What about the residual activity [35, 46] of the same molecule?
Its residual activity is 97%.

What about the residual activity [36, 46] of the same molecule?
The residual activity was 100%.

What about the residual activity [37, 46] of the same molecule?
The residual activity was 75%.

And the residual activity [38, 46]?
Its residual activity is 88%.

What about the inhibition [39] of the same molecule?
The inhibition was 13.6%.

And the residual activity [40, 46]?
Its residual activity is 85%.

What about the residual activity [41, 46] of the same molecule?
The residual activity was 100%.

What about the residual activity [42, 46] of the same molecule?
Its residual activity is 53%.

And the residual activity [43, 46]?
The residual activity was 100%.

What about the residual activity [44, 46] of the same molecule?
The residual activity was 95%.
